Patent US20250236616A1, “IMMUNOMODULATING AZALIDES” (Zoetis Services LLC, priority 2021, published 2025)
pIC50: −log10 of the molar value.

How the values were obtained:
TNF-α = assay: Whole bovine blood assay, LPS-induced TNF-α; format: cell-based; conditions: Bos taurus, fresh whole bovine blood, LPS stimulant; top drug concentration 250 μM
Method in brief: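 Fresh heparinized bovine whole blood was preincubated with compound 4 h at 37 °C, then stimulated with LPS (final 1 μg/mL) for 18 h at 37 °C. Plasma TNF-α was quantified by MSD U-Plex chemiluminescent immunoassay, normalized to total protein (BCA), and IC50 taken for LPS-induced TNF-α inhibition.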

IL-1β = assay: Whole bovine blood assay, LPS-induced IL-1β (inhibition / overstimulation); format: cell-based; conditions: Bos taurus, 18 h, drug concentration giving overstimulation (OS) of LPS-induced IL-1β, top concentration 250 μM
Method in brief: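 Fresh heparinized bovine whole blood was preincubated with compound at varying concentrations for 4 h at 37 °C, then stimulated with 1 μg/mL LPS for 18 h. Plasma IL-1β was measured by MSD chemiluminescent immunoassay and normalized to total protein. Values cover inhibition and concentration-dependent overstimulation.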

P. multocida 46572 = assay: In vivo mouse lung infection challenge model (murine efficacy), survival; design: species or system CD-1 female mice; conditions: P. multocida 46572 intranasal challenge; 20 mg/kg subcutaneous; harmonized relative to vehicle (−) and M9 (+) controls
Description: The challenge organism was P. multocida 46572. Target challenge concentration was 5×10^2 CFU/mouse. Isolated colonies from overnight growth (37° C. with 5% CO2) on trypticase soy agar (TSA II) blood plates were transferred to room temperature Brain Heart Infusion Broth (BHIB). The broth culture was incubated 3.5-4 hours to approximately mid-log phase of growth, as measured by forward light scatter at 600 nm (OD600, 0.200). The culture was centrifuged to collect the bacterial pellet. The pellet was re-suspended in BHIB and adjusted to provide an approximate concentration of 2.7 log 10 colony forming units (CFU) in 0.04 mL at the highest concentration. The challenge inoculum concentration was confirmed by serial dilutions of the inoculum for CFU enumeration. On Day −5, CD −1 female mice were received. Mice were given standard rodent diet and water ad libitum. On Day 0, bacterial inoculum (0.04 mL) was administered to each mouse (n=36) intranasally. Compounds of the invention were dosed at 20 mg/kg (0.1 mL) in a buffered (˜pH 5.4) propylene glycol, monothioglycerol and water solution by subcutaneous injection. Animals were observed from Days 1-10. The study was terminated on Day 10. In addition, some treatment groups were sampled at 6, 24, and 48 hours post bacterial challenge for RNA sequence analysis of lung tissue.
The murine efficacy model (P.multocida challenge) was optimized, and the treatment group size was powered to be able to observe statistically significant improvement of survival to expected ranges for immunomodulatory compounds. The experimental design was a randomized complete block design. Mice were individually identified and treatment groups comingled within a cage, with every treatment group equally represented across cages. Mortality was the primary variable. Mortality data was analyzed using a generalized mixed model with fixed effect of treatment and random effect of block. Survival time was also analyzed using the SAS PHREG (survival analysis) procedure to examine whether there were significant differences between treatment groups and the control group. Numerous compounds of the invention and M9 (positive control) were tested in this model at a dose of 20 mg/kg (Table 3). Typical percent survival for no treatment control is in the range of 0-20% based on study to study variation in challenge inoculum and rate of infection. […] Mouse survival for M9 was about 90-100%, further supporting its residual antibacterial properties against the bacterial strain.

IL-6 = assay: Whole bovine blood assay, LPS-induced IL-6; format: cell-based; conditions: Bos taurus, fresh whole bovine blood, LPS stimulant; top drug concentration 250 μM
P. multocida = assay: Murine P. multocida intranasal challenge study, treatment 18 hours after challenge, survival; format: in vivo, mice; conditions: subcutaneous 18 hours after challenge (5×10^3 CFU/mouse); tulathromycin 16 mg/kg, M9 32 mg/kg, ceftiofur 9 mg/kg
Description: In one murine P. multocida intranasal challenge study, mice were administered tulathromycin (16 mg/kg; T02), M9 (32 mg/kg; T03), or ceftiofur (9 mg/kg; T04) by subcutaneous injection 18 hours after bacterial challenge (5×10^3 CFU/mouse) for lung tissue RNA sequence analysis. Survival at Day 7 was about 80%, 50%, and 90% for T02, T03, and T04, respectively, compared to placebo at 0%. Differential gene expression from total lung tissue RNA sequence analysis indicated at least 226 unique genes were up or down regulated (with significance) for T03. Output from ingenuity pathway analysis of these unique genes predicted major upstream regulators of the involved pathways. Data was analyzed based on the number of genes being modulated in the same direction that were associated with a given upstream regulator. An activation z-score of 2 or greater is considered significant and the direction change is indicated by + (activated) or -(inhibited). The top 5 pathways included: IL-9 signaling, glucocorticoid receptor signaling, prolactin signaling, JAK STAT signaling, and IL-17 signaling. The top 6 upstream regulators (activation z-score) included: lipopolysaccharide (−6.725), TNF (−4.669), IFNγ (−5.759), IL-1β (−5.947), STAT1 (−2.787), and poly rl: rC-RNA (−5.289). Even though this study was run in the murine model, the top upstream regulators identified as being modulated by M9 include an almost ubiquitous overlap with the pathways identified in the natural disease study as being key mediators in BRD, and therefore is modulating highly relevant pathways in BRD pathobiology.

H. somni = assay: MIC, H. somni strains; format: cell-based; conditions: H. somni strains
Excerpt: Primary screening of the compounds of the invention included the evaluation of antibacterial activity of analogs through determination of microbial inhibition concentration (MIC) as per CLSI guidelines. The screening panel included the relevant BRD pathogens: 1) M. haemolytica (e.g., 12726, 46571 and 49023, all AHDRCC; and 33396 (ATCC)); and 2) P. multocida (e.g., 34135 and 46572 (both AHDRCC) and 43137 (ATCC)). In some instances, H. somni (A700025K) pathogens were also included in the screening panel. The AHDRCC strains originated from the Zoetis BRD/SRD surveillance program and refer to the Animal Health Development and Research Culture Collection. In addition, the screen assessed S. aureus (29213 ATCC) as a representative Gram-positive isolate, E.faecalis (19433 ATCC) as a commensal gram-positive gastrointestinal bacterium and E. coli (100, 3110 and 25922 (ATCC)) for the evaluation of efflux potential. The screening panel BRD pathogens were assessed in determining antibacterial activity of the Formula (1) compounds.
All relevant BRD pathogens were initially screened at a top concentration of 64 μg/mL of a Formula (1) compound in an eleven-point dilution series. […] If an Example was purified further, the MICs moved […] essentially two dilutions across all strains tested in the screening panel.
In-Vitro MIC Model Compounds were analyzed for antibacterial activity against a panel of animal health specific gram-positive and gram-negative clinical strains by diluting compounds in DMSO to an appropriate stock concentration to determine the Minimal Inhibitory Concentration (MIC) via a semi-automated broth micro-dilution method (CLSI reference method) with QC strains and anti-microbial agent(s). Specifically, bacteria were grown overnight on TSA w/5% sheep blood agar plates and diluted in saline buffer to a McFarland Standard 0.5, then further diluted in cation-ion adjusted Mueller Hinton Broth to a final concentration of approximately 5×10^5 CFU/mL. 100 μL of inoculated media was added to 96-well plate(s) with 3 μL of serially diluted compound in each row. Depending on strain (see CLSI reference method), bacteria were incubated 18-22 hours at 35-37° C. in ambient air, with 5% CO2 or anaerobically (up to 48 hours).

`CCCNC[C@]1(O)[C@H](C)O[C@@H](O[C@H]2[C@H](C)[C@@H](O[C@@H]3O[C@H](C)C[C@H](N(C)S(=O)(=O)N(C)C4CCCCC4)[C@H]3O)[C@](C)(O)C[C@@H](C)CN[C@H](C)[C@@H](O)[C@](C)(O)[C@@H](CC)OC(=O)[C@@H]2C)C[C@@]1(C)OC` [Example B-49, (2R,3S,4R,5R,8R,10R,11R,12S,13S,14R)-11-[(2S,3R,4S,6R)-4-[[cyclohexyl(methyl)sulfamoyl]-methylamino]-3-hydroxy-6-methyloxan-2-yl]oxy-2-ethyl-3,4,10-trihydroxy-13-[(2R,4R,5S,6S)-5-hydroxy-4-methoxy-4,6-dimethyl-5-(propylaminomethyl)oxan-2-yl]oxy-3,5,8,10,12,14-hexamethyl-1-oxa-6 azacyclopentadecan-15-one] was tested, and the pIC50 (TNF-α) was 4.43, the minimal effective concentration (IL-1β) was 6 µM and the “% Survival” value (P. multocida 46572) was 53%. It also gave a pIC50 (IL-6) of 4.80.
For `CC[C@H]1OC(=O)[C@H](C)[C@@H](O[C@H]2C[C@@](C)(OC)[C@](O)(CNCCCN3CCCCC3)[C@H](C)O2)[C@H](C)[C@@H](O[C@@H]2O[C@H](C)C[C@H](N(C)S(=O)(=O)c3ccc(Cl)cc3)[C@H]2O)[C@](C)(O)C[C@@H](C)CN[C@H](C)[C@@H](O)[C@]1(C)O` [Example B-58, 4-chloro-N-((2S,3R,4S,6R)-2-(((2R,3S,4R,5R,8R,10R,11R,12S,13S, 14R)-2-ethyl-3,4,10-trihydroxy-13-(((2R,4R,5S,6S)-5-hydroxy-4-methoxy-4,6-dimethyl-5-(((3-(piperidin-1-yl)propyl)amino)methyl)tetrahydro-2H-pyran-2-yl)oxy)-3,5,8,10,12,14-hexamethyl-15-oxo-1-oxa-6-azacyclopentadecan-11-yl)oxy)-3-hydroxy-6-methyltetrahydro-2H-pyran-4-yl)-N-methylbenzenesulfonamide], the pIC50 (TNF-α) was 4.54, the minimal effective concentration (IL-1β) was 40 µM and the “% Survival” value (P. multocida 46572) was 32%. For the same molecule, the pIC50 (IL-6) was 4.12.
In the case of `CCCNC[C@]1(O)[C@H](C)OC(O[C@H]2[C@H](C)[C@@H](O[C@@H]3O[C@H](C)C[C@H](N(C)S(=O)(=O)c4nccn4C)[C@H]3Oc3ccc(F)cc3)[C@](C)(O)C[C@@H](C)CN[C@H](C)[C@@H](O)[C@](C)(O)[C@@H](CC)OC(=O)[C@@H]2C)C[C@@]1(C)OC` (stereo partly drawn) [Example B-107, N-[(2S,3R,4S,6R)-2-[[(2R,3S,4R,5R,8R,10R,11R,12S,13S, 14R)-2-ethyl-3,4,10-trihydroxy-13-[(4R,5S,6S)-5-hydroxy-4-methoxy-4,6-dimethyl-5-(propylaminomethyl)oxan-2-yl]oxy-3,5,8, 10, 12, 14-hexamethyl-15-oxo-1-oxa-6-azacyclopentadec-11-yl]oxy]-3-(4-fluorophenoxy)-6-methyloxan-4-yl]-N, 1-dimethylimidazole-2-sulfonamide], the pIC50 (TNF-α) was 4.66, the minimal effective concentration (IL-1β) was 2 µM and the “% Survival” value (P. multocida 46572) was 82%. For the same molecule, the pIC50 (IL-6) was 5.05.
`CCCNC[C@]1(O)[C@H](C)O[C@@H](O[C@H]2[C@H](C)[C@@H](O[C@@H]3O[C@H](C)C[C@H](N(Cc4ccc(OC)cc4)S(=O)(=O)c4ccccc4)[C@H]3O)[C@](C)(O)C[C@@H](C)CN[C@H](C)[C@@H](O)[C@](C)(O)[C@@H](CC)OC(=O)[C@@H]2C)C[C@@]1(C)OC` [Example B-148, N-((2S,3R,4S,6R)-2-(((2R,3S,4R,5R,8R,10R,11R,12S,13S,14R)-2-ethyl-3,4,10-trihydroxy-13-(((2R,4R,5S,6S)-5-hydroxy-4-methoxy-4,6-dimethyl-5-((propylamino)methyl)tetrahydro-2H-pyran-2-yl)oxy)-3,5,8,10, 12, 14-hexamethyl-15-oxo-1-oxa-6-azacyclopentadecan-11-yl)oxy)-3-hydroxy-6-methyltetrahydro-2H-pyran-4-yl)-N-(4-methoxybenzyl)benzenesulfonamide] was tested, and the pIC50 (TNF-α) was 5.70, the minimal effective concentration (IL-1β) was 2 µM and the “% Survival” value (P. multocida 46572) was 68%. For the same molecule, the pIC50 (IL-6) was 5.40.
For `CO/N=C(\C(=O)N[C@@H]1C(=O)N2C(C(=O)O)=C(CSC(=O)c3ccco3)CS[C@H]12)c1csc(N)n1` [ceftiofur], the “Survival at Day 7” value (P. multocida) was roughly 90%.
`CCN1CCN(c2cc3c(cc2F)c(=O)c(C(=O)O)cn3C2CC2)CC1` [enrofloxacin] was tested, and the “MIC values, range” value (H. somni) was less than 0.06 to 1 µg/mL.
For `CS(=O)(=O)c1ccc([C@@H](O)[C@@H](CF)NC(=O)C(Cl)Cl)cc1` [florfenicol], the “MIC values, range” value (H. somni) was 0.12 to 2 µg/mL.
